Measurements published in US6902901B2, “Polypeptides useful for diagnosis of Aspergillus fumigatus and a process of preparing the same” (Council of Scientific and Industrial Research, priority 1998, dated 2005).

Columns and labels:
[1] = system: A. fumigatus specific IgG antibodies in sera; experiment: ELISA of peptide-coated plates with human sera, specific IgG binding; settings: diluted 1:100
Procedure: (§1) Sera derived from 25 healthy persons and 30 culture proven allergic bronchopulmonary aspergillosis patients were probed with synthetic peptides of the present invention for A. fumigatus specific antibodies. NUNC ELISA plates were coated with 0-1 ug/ml of peptide in carbonate-bicarbonate buffer, 0.01 M, pH 9.6 for 2 h at 37° C. The unreacted sites were blocked with bovine serum albumin in phosphate buffered saline, 0.01 M, pH 7.4. Diluted sera (1:100) of patients or healthy controls was added to the wells and Incubated for 3 h at 37° C. Washed plates received anti-human IgG-HRP conjugate for 1.5 h at 37° C. washed plates were then assayed with o-phenylene diamine substrate and read at 492 nm.

[2] = system: Peripheral blood lymphocytes (PBL); experiment: Cytokine analysis of PBMC supernatants incubated with peptides; assay type: cell-based, human; settings: PBMC supernatant, 6 days culture with peptide
Procedure: Peripheral blood lymphocytes (PBL) from healthy donors and aspergillosis patients were fractionated and 2×10^6 cells/well were cultured in presence or absence of synthetic peptides for 6 days in RPMI 1640 medium with 10% autologous serum. The supernatant medium was collected for cytokine analysis and 0.5 mg/ml solution of MTT was added to each well for 30 min. before harvesting cultures with acidified isopropanol. Absorbance was measured at 590 nm.

[3] = system: mixture of A. fumigatus allergens/antigens and purified 18 kD allergen/antigen; experiment: Intraperitoneal immunisation of mice with peptide, serum IgG ELISA; assay type: in vivo, BALB/c mice; settings: Immunised mice; 300 ug peptide i.p. with Freund's incomplete adjuvant; serum 30 days after immunization
Procedure: Each synthetic peptide (300 ug/150 ul saline) was emulsified with an equal volume of Freund's incomplete adjuvant and used for intraperitoneal immunisation of 3 BALB/c mice. IgG antibodies in the serum collected from these mice 30 days after immunization bound with mixture of A. fumigatus allergens/antigens and purified 18 kD allergen/antigen in ELISA.

[4] = system: sensitised mast cells of ABPA patients; experiment: Histamine release from heparinised whole blood incubated with peptides; assay type: cell-based, human; settings: 30 min at 37° C.
Procedure: Whole blood (heparinised) was incubated with the peptides for 30 min at 37° C. in polystyrene plates followed by centrifugation and collection of supernatants. The supernatants were acylated and were assayed for acylated histamine by histamine assay kit (Immunotech International).

[5] = system: A. fumigatus specific IgE antibodies in sera; experiment: ELISA of peptide-coated plates with human sera, specific IgE binding
Procedure: as §1, with “Washed plates received anti-human IgG-HRP conjugate for 1.5 h at 37° C. washed plates were then assayed with o-phenylene diamine substrate and read at 492 nm.” left out

| Substance | Absorbance at 490 nm, Specific IgG ([1]; Normal sera) | Absorbance at 490 nm, Specific IgG ([1]; Patient sera (ABPA)) | IL-2 [2] [pg/mL] | IL-4 [2] [pg/mL] | IL-6 [2] [pg/mL] | IL-10 [2] [pg/mL] | gamma-IFN [2] [pg/mL] | Absorbance at 490 nm, specific IgG antibodies in mice [3] | Histamine released ([4]; Normal whole blood) [nM] | Histamine released ([4]; Patient (ABPA) whole blood) [nM] | Absorbance at 490 nm, Specific IgE ([5]; Normal sera) | Absorbance at 490 nm, Specific IgE ([5]; Patient sera (ABPA)) |
| --- | --- | --- | --- | --- | --- | --- | --- | --- | --- | --- | --- | --- |
| TNKWEDK [pep 5] | 0.012 | 0.850 | 260 | 24 | 180 | 36 | 660 | 0.498 | 43 | 356 | 0.032 | 0.208 |
| INQQLNPK (listed as Aspergillus fumigatus) [pep 3, 8 aminoacids peptide, aa 6-14 (also printed aa 6-13) of the 18 kD allergen/antigen] | 0.011 | 0.674 | 80 | 92 | 620 | 220 | 168 | 0.434 | 65 | 369 | 0.042 | 0.256 |
| LNPKTNKWEDK (listed as Aspergillus fumigatus) [pep 2, 11 aminoacids peptide, aa 10-20 of the 18 kD allergen/antigen] | 0.09 | 0.852 | 280 | 48 | 140 | 80 | 320 | 0.636 | 82 | 402 | 0.039 | 0.473 |
| LNPKTNKWEDKRY [pep 6] | 0.004 | 0.828 | 120 | 62 | 760 | 340 | 240 | 0.547 | 62 | 278 | 0.033 | 0.145 |
| INQQLNPKTNKWEDK (listed as Aspergillus fumigatus) [pep 4, 15 aminoacids peptide, aa 6-20 of the 18 kD allergen/antigen] | 0.006 | 0.845 | 400 | 28 | 120 | 40 | 520 | 0.526 | 58 | 392 | 0.028 | 0.235 |
